Where two headings read alike, the source gives them in different places.
Key:
rats = experiment: Antinociception, formalin test (1% 50 μl), second phase; type: in vivo; details: rat, phase two; for Emax: read-out: maximum effect (decrease in number of shakes)
Description: We worked with five groups of 8 rats each. The antinociception effect was evaluated via the formalin test (1% 50 μl); rats are placed in an observation chamber made of acrylic material. The nociceptive behavior was evaluated based on the number of shakes at the injected paw.
Used substances: saline solution, formalin (produces nociceptive effect), ketorolac, riboflavin and B-complex (vitamins B1, B6 and B12).
For the dose-response curve, each group received a 0.32-10 mg/kg of ketorolac dose, 6.25-100 mg/kg of riboflavin, 56-316 mg/kg of B-complex, ketorolac-B-complex combination and ketorolac-riboflavin combinations.
The antinociceptive effect was measured for sixty minutes. […] Acute or initial phase from 0 to 10 minutes and tonic phase from 15 to 60 minutes.
Curves for the number of shakes against time were plot and the area under the curve was obtained (AUC) for the second phase, using the trapezoids method.
The dose-response curve for each composition was obtained as the percentage of the maximum possible effect.
The antinociceptive effect of ketorolac, B-complex in ratios of 100:100:1 of B1, B6 and B12 (respectively), riboflavin, ketorolac-B-complex combination, and ketorolac-riboflavin combination were evaluated.
A saline solution was used as a negative control solution (base level).
Administration: riboflavin (alone), ketorolac (alone), B-complex (alone), ketorolac-riboflavin combination, and ketorolac-B-complex combination.

[1] = Laboratory stability tests: ketorolac with acid solutions, direct combination with B-complex, light exposure; type: physicochemical
Description: (§1) Clinical studies have shown that ketorolac is a strong and effective analgesic. […] Ketorolac is one of the few non-steroidal anti-inflammatory drugs approved for parenteral administration. However, when administered in combination with other substances, it usually presents stability problems.
Currently, there are no individual pharmaceutical forms for the parenteral administration of ketorolac at 15 mg/ml and B-complex, as described in this invention.
The above situation makes impossible to simply combine ketorolac and B-complex, making it necessary to research and develop a system that provides appropriate stability characteristics for parenteral administration.

[2] = Solubility of ketorolac in water; type: physicochemical
Text: as §1

rat paw = experiment: Antinociceptive effect, heat-stimulation model in the rat paw (carrageen); type: in vivo; details: oral, measured for 6 hours
Description: Methodology: We worked with five groups of 8 rats each. The antinociceptive effect was evaluated through the heat-stimulation model in the rat paw. Used substances: saline solution, carrageen to produce the nociceptive effect (pain), ketorolac, riboflavin and B-complex (vitamins B1, B6 and B12). For the doses-response curve, each group received a ketorolac dose so that 0.32, 1, 1.8, 3.2 y 10 mg/kg of weight were administrated orally. The antinociceptive effect was measured for 6 hours. Latency time curves were plot on a graph (the time rat takes before moving […] its paw to avoid the pain) as a function of time. Saline solution was used as a negative control solution (establishing the base level) and carrageen to produce a sensitizing effect (inflammation). […] The following were administered: Riboflavin (alone), Ketorolac (alone), B-Complex (alone), Ketorolac and Riboflavin combination, and Ketorolac and B-Complex combination. Isobolograms were made in order to evaluate the interaction between ketorolac and B-complex using the ED25 values (effective doses) obtained from the dose-response curves for the administered drugs alone or combined.

[3] = cited from earlier work; for time to reach maximum plasma concentration (tmax): healthy humans

Row | stability when acid solutions are present [1] | solubility in water [2] | SMILES | ED25 (rats) [mg/kg] | Emax (rats) [%] | antinociceptive effect (area under the latency curve as a function of time), dose-response (rat paw) | time to reach maximum plasma concentration (tmax) ([3]; intramuscular) [min] | time to reach maximum plasma concentration (tmax) ([3]; oral) [min] | excreted in feces ([3]; humans) [%] | excreted in urine ([3]; humans) [%]
1 | decreases significantly | highly soluble | O=C(c1ccccc1)c1ccc2n1CCC2C(=O)O (racemic) [ketorolac, (±)-5(benzoyl)-2,3-dihydro-1N-pyrrolizine-1-carboxylic acid tris hydroxy methyl amino methane] | 2.1 ± 0.5 | 36 | dose-dependant response | 46 | 53 | 6 | 92
2 |  |  | Cc1cc2nc3c(=O)[nH]c(=O)nc-3n(C[C@H](O)[C@H](O)[C@H](O)CO)c2cc1C [riboflavin, Riboflavin] | 39.8 ± 7.1 | 33 | dose-dependant response |  |  |  | 

Reference: US20090227534A1, “Pharmaceutical Composition Comprising the Combination of a Ketorolac Salt and Vitamins of the-B-Complex for the Treatment of Neuralgia” (LABORATORIOS SENOSITAN S.A. DE C.V., priority 2006, published 2009)
